Measured values reported in ChEMBL document CHEMBL5356973 (J Med Chem, 2023).
pEC50: −log10 of the molar value. The source made the active and inactive calls. No cut-off for these calls is given here.

Key:
Mu-type opioid receptor [1] = target: T1, Mu-type opioid receptor (Homo sapiens, UniProt P35372); assay: Agonist activity at MOR (unknown origin) transfected in CHO cells co-expressing Galphaq15 assessed as increase in calcium mobilization by Fluo-4AM dye based assay; format: functional, cell-based
T1 sequence (P35372 whole entry): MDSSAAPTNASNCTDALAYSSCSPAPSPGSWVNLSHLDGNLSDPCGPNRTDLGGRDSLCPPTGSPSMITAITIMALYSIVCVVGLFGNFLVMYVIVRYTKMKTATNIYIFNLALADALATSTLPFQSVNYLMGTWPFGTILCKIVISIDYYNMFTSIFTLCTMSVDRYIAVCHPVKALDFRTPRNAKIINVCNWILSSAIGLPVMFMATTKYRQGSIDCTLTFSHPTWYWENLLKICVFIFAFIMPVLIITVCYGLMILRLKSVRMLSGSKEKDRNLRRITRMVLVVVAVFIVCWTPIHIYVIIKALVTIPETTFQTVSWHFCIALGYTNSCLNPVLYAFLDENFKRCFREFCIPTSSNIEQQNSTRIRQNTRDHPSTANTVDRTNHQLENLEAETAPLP

Mu-type opioid receptor [2] = target: T1, Mu-type opioid receptor; assay: Agonist activity at MOR (unknown origin) transfected in CHO cells co-expressing Galphaq15 assessed as increase in calcium mobilization by measuring maximal efficacy by Fluo-4AM dye based assay relative to control; format: functional, cell-based; details: filed as agonist
[3] = target: T2, Kappa-type opioid receptor (Homo sapiens, UniProt P41145); assay: Agonist activity at KOR (unknown origin) transfected in CHO cells co-expressing Galphaq15 assessed as increase in calcium mobilization by Fluo-4AM dye based assay; format: functional, cell-based
T2 sequence (P41145 whole entry): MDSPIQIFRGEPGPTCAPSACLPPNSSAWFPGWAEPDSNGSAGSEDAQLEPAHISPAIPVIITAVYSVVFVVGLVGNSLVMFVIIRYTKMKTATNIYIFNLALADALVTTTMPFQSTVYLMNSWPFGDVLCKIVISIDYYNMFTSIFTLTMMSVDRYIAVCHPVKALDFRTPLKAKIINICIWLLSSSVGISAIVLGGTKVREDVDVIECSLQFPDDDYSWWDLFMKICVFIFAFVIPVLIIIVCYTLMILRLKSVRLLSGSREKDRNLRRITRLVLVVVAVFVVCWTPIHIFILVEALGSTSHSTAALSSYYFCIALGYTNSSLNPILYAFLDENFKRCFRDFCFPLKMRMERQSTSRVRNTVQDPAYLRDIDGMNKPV

[4] = target: T2, Kappa-type opioid receptor; assay: Agonist activity at KOR (unknown origin) transfected in CHO cells co-expressing Galphaq15 assessed as increase in calcium mobilization by measuring maximal efficacy by Fluo-4AM dye based assay relative to control; format: functional, cell-based; details: filed as agonist
[5] = target: T3, Delta-type opioid receptor (Homo sapiens, UniProt P41143); assay: Agonist activity at DOR (unknown origin) transfected in CHO cells co-expressing Galphaq15 assessed as increase in calcium mobilization by Fluo-4AM dye based assay; format: functional, cell-based
T3 sequence (P41143 whole entry): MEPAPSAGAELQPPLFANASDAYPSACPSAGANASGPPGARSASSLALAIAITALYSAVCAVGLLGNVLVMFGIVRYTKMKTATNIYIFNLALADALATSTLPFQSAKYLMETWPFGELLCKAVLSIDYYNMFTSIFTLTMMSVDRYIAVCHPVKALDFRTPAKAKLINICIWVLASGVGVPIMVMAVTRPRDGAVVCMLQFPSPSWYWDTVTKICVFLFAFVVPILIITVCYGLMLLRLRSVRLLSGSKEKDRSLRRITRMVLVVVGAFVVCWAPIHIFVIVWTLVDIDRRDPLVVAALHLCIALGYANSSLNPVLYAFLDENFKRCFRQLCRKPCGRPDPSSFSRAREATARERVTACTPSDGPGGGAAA

[6] = target: T3, Delta-type opioid receptor; assay: Agonist activity at DOR (unknown origin) transfected in CHO cells co-expressing Galphaq15 assessed as increase in calcium mobilization by measuring maximal efficacy by Fluo-4AM dye based assay relative to control; format: functional, cell-based; details: filed as agonist
[7] = Agonist activity at NPFF1R (unknown origin) transfected in CHO cells co-expressing Galphaq15 assessed as increase in calcium mobilization by measuring maximal efficacy by Fluo-4AM dye based assay relative to control; format: functional, cell-based; details: Homo sapiens, filed as agonist
[8] = target: T4, Neuropeptide FF receptor 2 (Homo sapiens, UniProt Q9Y5X5); assay: Agonist activity at NPFF2R (unknown origin) transfected in HEK293 cells co-expressing Galphaq15 assessed as increase in calcium mobilization by Fluo-4AM dye based assay; format: functional, cell-based
T4 sequence (Q9Y5X5 whole entry): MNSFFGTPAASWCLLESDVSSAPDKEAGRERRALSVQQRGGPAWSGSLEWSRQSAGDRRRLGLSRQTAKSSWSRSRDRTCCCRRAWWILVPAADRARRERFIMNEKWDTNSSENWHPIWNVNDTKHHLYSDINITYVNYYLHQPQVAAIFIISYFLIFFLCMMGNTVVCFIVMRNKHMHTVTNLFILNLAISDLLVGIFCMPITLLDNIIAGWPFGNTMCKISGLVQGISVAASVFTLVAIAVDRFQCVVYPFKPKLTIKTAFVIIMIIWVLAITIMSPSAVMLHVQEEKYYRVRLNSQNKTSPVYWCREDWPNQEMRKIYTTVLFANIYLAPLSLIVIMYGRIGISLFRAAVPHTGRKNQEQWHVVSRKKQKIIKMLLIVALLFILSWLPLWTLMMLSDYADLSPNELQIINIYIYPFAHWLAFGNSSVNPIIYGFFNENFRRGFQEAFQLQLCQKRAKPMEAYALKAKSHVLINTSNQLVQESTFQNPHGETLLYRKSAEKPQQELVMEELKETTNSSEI

[9] = target: T4, Neuropeptide FF receptor 2; assay: Agonist activity at NPFF2R (unknown origin) transfected in HEK293 cells co-expressing Galphaq15 assessed as increase in calcium mobilization by measuring maximal efficacy by Fluo-4AM dye based assay relative to control; format: functional, cell-based; details: filed as agonist
[10] = Metabolic stability in mouse plasma assessed as degradation half life at 10 mM measured upto 480 mins by RP-HPLC analysis; format: ADME, cell-free
[11] = Metabolic stability in mouse brain homogenate assessed as degradation half life at 10 mM measured upto 480 mins by RP-HPLC analysis; format: ADME, tissue-based
Mus musculus [12] = assay: Antinociceptive activity in Kunming mouse assessed as changes in tail flick latency by measuring maximal possible effect at 0.88 nmol/kg, sc measured after 20 mins by tail-flick test; format: functional
Mus musculus [13] = assay: Antinociceptive activity in Kunming mouse assessed as changes in tail flick latency by measuring maximal possible effect at 0.88 nmol/kg, sc measured after 30 mins by tail-flick test; format: functional; details: 0.5 h
Mus musculus [14] = assay: Antinociceptive activity in Kunming mouse assessed as changes in tail flick latency by measuring maximal possible effect at 0.88 nmol/kg, sc measured after 60 mins by tail-flick test; format: functional; details: 1 h
Mus musculus [15] = assay: Antinociceptive activity in Kunming mouse assessed as changes in tail flick latency by measuring maximal possible effect at 0.88 nmol/kg, sc measured after 120 mins by tail-flick test; format: functional; details: 2 h
Mus musculus [16] = assay: Antinociceptive activity in Kunming mouse assessed as changes in tail flick latency by measuring maximal possible effect at 0.88 nmol/kg, sc measured after 240 mins by tail-flick test; format: functional; details: 4 h
Mus musculus [17] = assay: Antinociceptive activity in Kunming mouse assessed as changes in tail flick latency by measuring time duration of antinociceptive effect at 0.88 nmol/kg, sc by tail-flick test; format: functional
Mus musculus [18] = assay: Antinociceptive activity in sc dosed Kunming mouse assessed as changes in tail flick latency measured after 10 to 360 mins by tail-flick test; format: functional; details: time 10-360 min
Mus musculus [19] = assay: Antinociceptive activity in Kunming mouse assessed as changes in tail flick latency at 0.88 nmol/kg, sc pretreated with naloxone methiodide at 5 nmol, icv for 10 mins followed by compound addition and measured for 360 mins by tail-flick test; format: functional, organism-based
Mus musculus [20] = assay: Antinociceptive activity in Kunming mouse assessed as changes in tail flick latency at 0.88 nmol/kg, sc pretreated with beta-funaltrexamine at 10 nmol, icv for 4 hrs followed by compound addition and measured for 360 mins by tail-flick test; format: functional, organism-based
Mus musculus [21] = assay: Antinociceptive activity in Kunming mouse assessed as changes in tail flick latency at 0.88 nmol/kg, sc pretreated with nor-binaltorphimine at 10 nmol, icv for 30 mins followed by compound addition and measured for 360 mins by tail-flick test; format: functional, organism-based
Mus musculus [22] = assay: Antinociceptive activity in Kunming mouse assessed as changes in tail flick latency at 0.88 nmol/kg, sc pretreated with naltrindole at 10 nmol, icv for 10 mins followed by compound addition and measured for 360 mins by tail-flick test; format: functional, organism-based
Mus musculus [23] = assay: Antinociceptive activity in Kunming mouse assessed as changes in tail flick latency at 0.009 nmol/kg, sc pretreated with 1-adamantanecarbonyl-RF-NH2 at 10 nmol, icv for 5 mins followed by compound addition and measured for 360 mins by tail-flick test; format: functional, organism-based
[24] = Ratio of AUC in brain to plasma in Kunming mouse at 1 mg/kg, iv measured upto 240 mins by LC-MS/MS analysis; format: ADME, organism-based; details: read-out: BPR
[25] = AUC in Kunming mouse plasma at 1 mg/kg, iv measured upto 240 mins by LC-MS/MS analysis; format: ADME, organism-based; set-up: time < 240 min, dose 1 mg/kg, route iv
[26] = AUC in Kunming mouse brain at 1 mg/kg, iv measured upto 240 mins by LC-MS/MS analysis; format: ADME, organism-based; set-up: time < 240 min, dose 1 mg/kg, route iv; details: in vivo, 4 h
Mus musculus [27] = assay: Antinociceptive activity in Kunming mouse assessed as changes in tail flick latency by measuring time duration of action at 0.88 to 8.82 nmol/kg, po measured for 360 mins by tail-flick test; format: functional; details: dose 0.88-8.82 nmol/kg, 6 h
Mus musculus [28] = assay: Antinociceptive activity in po dosed Kunming mouse assessed as changes in tail flick latency measured for 360 mins by tail-flick test; format: functional
Mus musculus [29] = assay: Antinociceptive activity in Kunming mouse assessed as changes in tail flick latency by measuring time duration of action at 1 to 10 pmol, icv measured for 360 mins by tail-flick test; format: functional; details: dose 1-10 pmol, 6 h
Mus musculus [30] = assay: Antinociceptive activity in icv dosed Kunming mouse assessed as changes in tail flick latency measured for 360 mins by tail-flick test; format: functional
[31] = Induction of antinociceptive tolerance in Kunming mouse assessed as decrease in tail flick latency at 0.88 nmol/kg, sc administered once daily for 8 days and measured once daily by tail-flick test; format: toxicity, organism-based; details: in vivo, 192 h, time 8 day
[32] = Toxicity in Kunming mouse assessed as effect on motor coordination at 88 nmol/kg, sc measured after 15 to 45 mins by rotarod test; format: organism-based; details: in vivo, time 15-45 min
[33] = Toxicity in sc dosed 16 hrs fasted Kunming mouse assessed as constipation by measuring inhibition of gastrointestinal transit administered for 15 mins followed by charcoal meal and measured after 30 mins; format: organism-based; details: in vivo, 0.75 h, time 45 min
[34] = Toxicity in Kunming mouse assessed as effect on locomotor activity at 88 nmol/kg, sc measured after 20 to 180 mins by open field test; format: organism-based; details: in vivo, time 20-180 min
[35] = Toxicity in Kunming mouse assessed as addiction behavior at 88 nmol/kg, sc administered for 3 days starting from day 2 and measured on day 5 by conditioned place preference test; format: organism-based; details: in vivo, 96 h, time 4 day
[36] = Toxicity in sc dosed Kunming mouse assessed as effect on naloxone-induced jumping response at 88 nmol/kg, sc administered every 8 hrs for 3 days followed by naloxone administration at 2 hrs post last dose and measured immediately by Nal-precipitated withdraw test; format: organism-based; details: in vivo, 74 h
[37] = Toxicity in Kunming mouse assessed as reduction in respiration frequency at 88 nmol/kg, sc measured upto 100 mins by whole-body plethysmography; format: organism-based; details: in vivo, 1.667 h

With `CN1C(=O)CNC(=O)[C@H](N[C@@H](Cc2ccc(O)cc2)C(=O)O)CCCC/C=C\C[C@@H](C(=O)N2CCC[C@H]2C(=O)N[C@@H](CCC(N)=O)C(=O)N[C@@H](CCCNC(=N)N)C(=O)N[C@@H](Cc2ccccc2)C(N)=O)NC(=O)[C@@H]1Cc1ccccc1` as the molecule, how does the pEC50 (Mu-type opioid receptor [1]) read?
The pEC50 was 8.55.

And the Emax (Mu-type opioid receptor [2])?
The Emax was 98.1%.

And the pEC50 [3]?
Its pEC50 is 6.77.

And the Emax [4]?
The Emax was 99.2%.

And the pEC50 [5]?
Its pEC50 is 7.25.

And the Emax [6]?
Its Emax is 81.9%.

And the Emax [7]?
The Emax was 93.7%.

What about the pEC50 [8] of the same molecule?
Its pEC50 is 6.84.

And the Emax [9]?
Its Emax is 89.2%.

What about the half-life at 10000 µM [10] of the same molecule?
The half-life at 10000 µM was 0.447 h.

And the half-life at 10000 µM [11]?
The half-life at 10000 µM was 1.78 h.

What about the MPE (Mus musculus [12]) of the same molecule?
Its MPE is 89.8%.

And the MPE (Mus musculus [13])?
Its MPE is 89.5%.

And the MPE (Mus musculus [14])?
The MPE was 85.4%.

And the MPE (Mus musculus [15])?
Its MPE is 58.9%.

What about the MPE (Mus musculus [16]) of the same molecule?
Its MPE is 46.2%.

What about the Time (Mus musculus [17]) of the same molecule?
Its Time is 360 min.

What about the Activity (Mus musculus [18]) of the same molecule?
Its Activity is “Dose-Dependent Effect”.

What about the ED50 (Mus musculus [18]) of the same molecule?
Its ED50 is 1e-05 µmol/kg.

And the Activity (Mus musculus [19])?
The Activity was “inactive”.

And the Activity (Mus musculus [20])?
Its Activity is “inactive”.

And the Activity (Mus musculus [21])?
The Activity was “inactive”.

What about the Activity (Mus musculus [22]) of the same molecule?
Its Activity is “Active”.

And the Activity (Mus musculus [23])?
Its Activity is “Active”.

And the Kp at 4 h [24]?
The Kp at 4 h was 1.35.

What about the AUC at 4 h [25] of the same molecule?
The AUC at 4 h was 2270 ng·h/mL.

And the AUC [26]?
Its AUC is 183.2 µg·min/g.

What about the Time (Mus musculus [27]) of the same molecule?
Its Time is “<=360 min”.

What about the Activity (Mus musculus [28]) of the same molecule?
The Activity was “Dose-Dependent Effect”.

And the ED50 (Mus musculus [28]; 6 h)?
The ED50 was 0.00135 µmol/kg.

What about the Time (Mus musculus [29]) of the same molecule?
The Time was “<=360 min”.

What about the Activity (Mus musculus [30]) of the same molecule?
Its Activity is “Dose-Dependent Effect”.

What about the ED50 (Mus musculus [30]; 6 h) of the same molecule?
The ED50 was 1.38 pmol.

What about the Activity [31] of the same molecule?
The Activity was “Non-Toxic”.

What about the Activity [32] of the same molecule?
The Activity was “Non-Toxic”.

What about the ED50 [33] of the same molecule?
The ED50 was 84 nmol/kg.

What about the Activity [34] of the same molecule?
Its Activity is “Non-Toxic”.

And the Activity [35]?
The Activity was “Non-Toxic”.

What about the Activity [36] of the same molecule?
The Activity was “Non-Toxic”.

What about the Activity [37] of the same molecule?
The Activity was “Non-Toxic”.
